Source: ChEMBL document CHEMBL4130457, “Discovery of AZD-2098 and AZD-1678, Two Potent and Bioavailable CCR4 Receptor Antagonists” (ACS Med Chem Lett, 2017)

How the values were obtained:
[1] = Protein binding in human plasma; format: ADME, cell-free; settings: read-out: PPB (converted)
[2] = target: T1, C-C chemokine receptor type 4 (Homo sapiens, UniProt P51679); assay: Antagonist activity at recombinant human CCR4 expressed in CHO-K1 cells assessed as inhibition of CCL22 induced Ca2+ mobilization after 2 hrs by FMAT based fluorescence assay; format: functional, cell-based
T1 sequence (P51679 whole entry): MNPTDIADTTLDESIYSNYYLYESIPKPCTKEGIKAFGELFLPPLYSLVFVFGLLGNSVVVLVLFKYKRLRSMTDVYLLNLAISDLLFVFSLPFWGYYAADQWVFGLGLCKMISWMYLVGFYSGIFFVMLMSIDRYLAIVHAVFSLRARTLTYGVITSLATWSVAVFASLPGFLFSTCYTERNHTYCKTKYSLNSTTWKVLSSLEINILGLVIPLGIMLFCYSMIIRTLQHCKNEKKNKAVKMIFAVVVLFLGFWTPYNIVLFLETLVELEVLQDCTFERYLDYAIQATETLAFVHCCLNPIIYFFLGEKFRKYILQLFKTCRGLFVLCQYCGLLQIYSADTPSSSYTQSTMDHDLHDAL

[3] = Lipophilicity, log P of the compound; format: physicochemical; settings: octanol/water
[4] = target: T2, C-C chemokine receptor type 4 (Homo sapiens) (UniProt P51679); assay: Antagonist activity at recombinant human CCR4 expressed in CHO-K1 cells assessed as inhibition of CCL22 induced Ca2+ mobilization at 10 uM after 2 hrs by FMAT based fluorescence assay relative to control; format: functional, cell-based
T2 sequence (whole entry): T1 sequence (P51679 whole entry)

Compound | fraction unbound [1] | IC50 [2] [µM] | logP [3] | inhibition [4] [%]
O=S(=O)(Nc1ncc(Cl)nc1OCc1ccccc1CO)c1cccc(Cl)c1Cl | < 0.001 | – | – | –
C=CCOc1nc(Cl)cnc1NS(=O)(=O)c1cccc(Cl)c1Cl | – | 0.0158 | – | –
CSc1nc(Br)cnc1NS(=O)(=O)c1ccc(Cl)s1 | – | 3.16 | – | –
COc1nc(Br)cnc1NS(=O)(=O)c1sccc1-c1ccccc1 | – | 1 | – | –
COc1nc(Br)cnc1NS(=O)(=O)c1cc(Cl)c(Cl)s1 | – | 1 | – | –
COc1nc(Br)cnc1NS(=O)(=O)c1ccc(Cl)c(Cl)c1 | – | 0.2 | – | –
COc1nc(CO)c(Cl)nc1NS(=O)(=O)c1cccc(Cl)c1Cl | 0.004 | 0.00398 | 3.2 | –
COc1nc(Br)cnc1NS(=O)(=O)c1cccs1 | – | 0.631 | – | –
O=S(=O)(Nc1ncc(Cl)nc1OCc1cccnc1)c1cccc(Cl)c1Cl | < 0.001 | 0.000631 | – | –
C#CCOc1nc(Cl)cnc1NS(=O)(=O)c1cccc(Cl)c1Cl | – | 0.00251 | – | –
COc1nc(Br)cnc1NS(=O)(=O)c1cccc(Cl)c1 | – | 0.1 | – | –
O=S(=O)(Nc1ncc(Cl)nc1OCc1cncnc1)c1cccc(Cl)c1Cl | < 0.001 | 0.0126 | – | –
COc1nc(CO)c(C)nc1NS(=O)(=O)c1cccc(Cl)c1Cl | 0.013 | 0.0398 | 2.4 | –
CCCCS(=O)(=O)Nc1ncc(Cl)nc1OC | – | 3.16 | – | –
COc1nc(F)c(F)nc1NS(=O)(=O)c1cccc(Cl)c1Cl | < 0.002 | 0.001 | – | –
COc1nc(Cl)cnc1NS(=O)(=O)c1ccnc(Cl)c1Cl | – | 10 | – | –
COc1nc(Cl)cnc1NS(=O)(=O)c1scc(Cl)c1Cl | – | 0.00794 | – | –
COc1nc(Br)cnc1NS(=O)(=O)c1ccc(Cl)cc1Cl | – | 0.126 | – | –
CCOc1nc(Br)cnc1NS(=O)(=O)c1ccc(Cl)s1 | – | 0.2 | – | –
COc1nc(Br)cnc1NS(=O)(=O)c1ccsc1 | – | 1.26 | – | –
COc1nc(Br)cnc1NS(=O)(=O)c1ccccc1 | – | 0.794 | – | –
COc1nc(Br)cnc1NS(=O)(=O)c1sc(Cl)cc1Br | – | 0.0398 | – | –
CCc1nc(Br)cnc1NS(=O)(=O)c1ccc(Cl)s1 | – | 5.01 | – | –
COc1nc(Br)cnc1NS(=O)(=O)c1cc(Cl)cc(Cl)c1 | – | 5.01 | – | –
CNc1nc(Br)cnc1NS(=O)(=O)c1ccc(Cl)s1 | – | > 10 | – | 44
O=S(=O)(Nc1ncc(Cl)nc1OCc1cccc(Br)c1)c1cccc(Cl)c1Cl | < 0.001 | 0.00398 | – | –
COc1nc(Br)cnc1NS(=O)(=O)c1ccc(Cl)cc1 | – | 0.126 | – | –
COc1nc(Br)cnc1NS(=O)(=O)c1ccccc1Cl | – | 0.158 | – | –
COc1nccnc1NS(=O)(=O)c1scc(Cl)c1Cl | 0.025 | 0.02 | 2.8 | –
COc1nc(Br)cnc1NS(=O)(=O)c1cc(Cl)ccc1Cl | – | 3.16 | – | –

Further lines, results first:

fraction unbound [1] | IC50 [2] [µM] | logP [3] | inhibition [4] [%] | Compound
– | 0.0631 | – | – | COc1nc(Cl)cnc1NS(=O)(=O)c1cccc(C(F)(F)F)c1Cl
< 0.001 | 0.00794 | 4.5 | – | COc1ncc(Cl)nc1NS(=O)(=O)c1cccc(Cl)c1Cl
0.038 | 0.0251 | 2.1 | – | COc1nc(CO)cnc1NS(=O)(=O)c1cccc(Cl)c1Cl
– | 7.94 | – | – | CC(C)(C)COc1nc(Cl)cnc1NS(=O)(=O)c1cccc(Cl)c1Cl
– | 0.631 | – | – | COc1nc(Br)cnc1NS(=O)(=O)c1c(Cl)cccc1Cl
< 0.001 | – | 4.1 | – | COc1nc(Cl)cnc1NS(=O)(=O)c1cccc(Cl)c1Cl
< 0.001 | 0.01 | – | – | COc1nc(Br)cnc1NS(=O)(=O)c1cccc(Cl)c1Cl
– | 5.01 | – | – | COc1nc(S(C)(=O)=O)cnc1NS(=O)(=O)c1cccc(Cl)c1Cl
– | 0.0158 | – | – | COc1nc(Cl)cnc1NS(=O)(=O)c1cccc(F)c1Cl
– | 0.0794 | – | – | COc1nc(Cl)cnc1NS(=O)(=O)c1cccc(Cl)c1F
– | 0.02 | – | – | COc1nc(Cl)cnc1NS(=O)(=O)c1cccc(Cl)c1C
0.0035 | 0.0398 | 3 | – | COc1nc(C)cnc1NS(=O)(=O)c1cccc(Cl)c1Cl
< 0.002 | 0.00398 | 3.3 | – | COc1ncc(F)nc1NS(=O)(=O)c1cccc(Cl)c1Cl
< 0.002 | 0.0501 | – | – | COc1ncc(C)nc1NS(=O)(=O)c1cccc(Cl)c1Cl
– | 0.0631 | – | – | COc1nc(Cl)cnc1NS(=O)(=O)c1cccc(Cl)c1C#N
< 0.001 | 0.0126 | 4.1 | – | CCOc1cnc(NS(=O)(=O)c2cccc(Cl)c2Cl)c(OC)n1
